# What was measured:
# [1] = tested on: inducible caspase-9 suicide gene in iC9/CAR.19/IL-15^+ T cells; details: previous observation (ref 27); cited from earlier work
# [2] = tested on: iC9/CAR.19/IL-15^+ T cells expressing eGFP-FFLuc; assay: In vivo validation of the suicide gene, Raji-engrafted mice with labeled iC9/CAR.19/IL-15^+ T cells; set-up: species or system SCID mice; details: Raji i.v., after CID i.p.
# Method: In vivo validation of the suicide gene. To evaluate the functionality of the suicide gene, mice bearing tumor cells and receiving iC9/CAR.19/IL-15^+ T cells labeled with the eGFP-FFluc gene were treated with CID ([…]) i.p. 2 to 3 doses every other day.^27 CID treatment was initiated when the T-cell bioluminescent signal was exponentially increasing, indicating active expansion of the transgenic cells. Mice were then imaged as described above.
# Mice were engrafted i.v. with Raji tumor cells and then infused with eGFP-FFLuc labeled iC9/CAR.19/IL-15^+ T cells. These cells localized and expanded at the tumor site by day 14 after infusion as assessed by bioluminescence measurement (FIG. 6b).
smiles,measurement,setting,value
"CC[C@H](C(=O)N1CCCC[C@H]1C(=O)O[C@H](CCc1ccc(OC)c(OC)c1)c1cccc(OCC(=O)NCC(CNC(=O)COc2cccc([C@@H](CCc3ccc(OC)c(OC)c3)OC(=O)[C@@H]3CCCCN3C(=O)[C@@H](CC)c3cc(OC)c(OC)c(OC)c3)c2)CN(C)C)c1)c1cc(OC)c(OC)c(OC)c1 [CID, AP20187]",Fraction of cells that escape apoptosis/necrosis shortly after exposure to the dimerizer drug,[1],< 10%
same,T-cell bioluminescence after administration of the CID,[2],1.3×10^5±3×10^4 p/s/cm^2/sr

# From US20130071414A1, “ENGINEERED CD19-SPECIFIC T LYMPHOCYTES THAT COEXPRESS IL-15 AND AN INDUCIBLE CASPASE-9 BASED SUICIDE GENE FOR THE TREATMENT OF B-CELL MALIGNANCIES” (priority 2011, published 2013)
